Key:
[1] = target: T1, Recombinant human liver GK1 (GST-GK) (Homo sapiens, UniProt P35557); experiment: Glucokinase in vitro assay (G6PDH-coupled, NADH at OD340); assay type: biochemical; conditions: 25° C., 5 mM D-glucose, 10% DMSO, GST-GK
T1 construct: made in house; host or cells: E. coli
T1 sequence (P35557 1-466 isoform P35557-2): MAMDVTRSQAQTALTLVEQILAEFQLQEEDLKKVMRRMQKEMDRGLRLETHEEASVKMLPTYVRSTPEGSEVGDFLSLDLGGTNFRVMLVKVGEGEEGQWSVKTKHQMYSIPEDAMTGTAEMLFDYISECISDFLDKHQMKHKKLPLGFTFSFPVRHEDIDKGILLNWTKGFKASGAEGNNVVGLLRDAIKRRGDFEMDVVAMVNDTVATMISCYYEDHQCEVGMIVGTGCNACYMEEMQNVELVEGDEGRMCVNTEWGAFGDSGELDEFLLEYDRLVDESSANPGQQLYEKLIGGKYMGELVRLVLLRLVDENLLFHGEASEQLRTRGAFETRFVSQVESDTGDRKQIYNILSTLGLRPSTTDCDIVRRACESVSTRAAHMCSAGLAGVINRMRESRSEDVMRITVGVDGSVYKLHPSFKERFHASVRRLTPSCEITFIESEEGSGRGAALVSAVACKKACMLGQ
Protocol: Glucokinase In Vitro Assay Protocol: Glucokinase (GK) was assayed by coupling the production of glucose-6-phosphate to the generation of NADH with glucose-6-phosphate dehydrogenase (G6PDH, 0.75-1 kunits/mg; Boehringer Mannheim, Indianapolis, Ind.) from Leuconostoc mesenteroides as the coupling enzyme (Scheme 2).
Recombinant human liver GK1 was expressed in E. coli as a glutathione S-transferase fusion protein (GST-GK) [Liang et al, 1995] and was purified by chromatography over a glutathione-Sepharose 4B affinity column using the procedure provided by the manufacturer (Amersham Pharmacia Biotech, Piscataway, N.J.).
The assay was conducted at 25° C. in a flat bottom 96-well tissue culture plate from Costar (Cambridge, Mass.) with a final incubation volume of 120 μL. The incubation reaction contained the following: 25 mM Hepes buffer (pH 7.1), 25 mM KCl, 5 mM D-glucose, 1 mM ATP, 1.8 mM NAD, 2 mM MgCl2, 1 μM sorbitol-6-phosphate, 1 mM dithiothreitol, test drug or 10% DMSO, 1.8 unit/ml G6PDH, and GK (see below). All organic reagents were >98% pure and were from Boehringer Mannheim with the exceptions of D-glucose and Hepes which were from Sigma Chemical Co, St Louis, Mo. Test compounds were dissolved in DMSO and were added to the incubation reaction minus GST-GK in a volume of 12 μL to yield a final DMSO concentration of 10%. This mix was pre-incubated in the temperature controlled chamber of a SPECTRAmax 250 microplate spectrophotometer (Molecular Devices Corporation, Sunnyvale, Calif.) for 10 minutes to allow temperature equilibrium and then the reaction was started by the addition of 20 μL GST-GK.
After addition of enzyme, the increase in optical density (OD) at 340 nm was monitored over a 10 minute incubation period as a measure of GK activity. Sufficient GST-GK was added to produce an increase in OD340 of 0.08 to 0.1 units over the 10 minute incubation period in wells containing 10% DMSO but no test compound. Preliminary experiments established that the GK reaction was linear over this period of time even in the presence of activators that produced a 5-fold increase in GK activity. The GK activity in control wells was compared with the activity in wells containing test GK activators, and the concentration of activator that produced a 50% increase in the activity of GK, i.e., the SC1.5, was calculated.

[2] = tested on: Diet-Induced Obese (DIO) C57BL/6J mice; experiment: Glucokinase activator in vivo screen, blood glucose in DIO mice; conditions: Mus musculus; 2 hours post 25 mg/kg oral dose in DIO mice, vs control; read-out: % gluc @ 2 H (% glucose lowering vs control)
Protocol: Glucokinase Activator in vivo Screen Protocol in Lean and Diet Induced Obese Mice: Lean or Diet-Induced Obese (DIO) C57BL/6J mice were orally dosed via gavage with Glucokinase (GK) activator (50 mg/kg body weight for lean mice, 25 mg/kg body weight for DIO mice) following a two hour fasting period. Blood glucose determinations were made four times during the six hour post-dose study period.
C57Bl/6J mice were obtained from Jackson Laboratory (Bar Harbor, Me.) and were maintained in a light-dark cycle with lights on from 0600-1800 hr. For studies in lean mice, the mice were received at age six weeks and given ad libitum access to control diet (LabDiet 5001 chow, PMI Nutrition, Brentwood, Mo.), and were at least age 11 weeks at the time of study. For studies in the DIO model, the mice were received at age five weeks and given ad libitum access to Bio-Serv F3282 High Fat Diet (Frenchtown, N.J.), and were at least age 16 weeks at the time of study. The experiments were conducted during the light phase of the light-dark cycle. Mice (n=6) are weighed and fasted for a two hour period prior to oral treatment. GK activators are formulated in Gelucire vehicle (Ethanol:Gelucire44/14:PEG400q.s. 4:66:30 v/w/v. For studies in lean mice, the mice were dosed orally with 5.0 μL per gram of body weight with 5 ml/kg×10.0 mg/ml formulation to equal a 50 mg/kg dose. For studies in DIO mice, the mice were dosed orally with 5.0 μL per gram of body weight with […] formulation to equal a 25 mg/kg dose. Immediately prior to dosing, a pre-dose (time zero) blood glucose reading was acquired by snipping off a small portion of the animal's tail (˜1 mm) and collecting 15 μL blood into a heparinized capillary tube for analysis. Following GK activator administration, additional blood glucose readings were taken at 2, 4 and 6 hours post dose from the same tail wound. Results were interpreted by comparing the mean blood glucose values of six vehicle treated mice with six GK activator treated mice over the six hour study duration.

- SC1.5 (concentration of activator that produced a 50% increase in the activity of GK) [1]: 0.779 µM
Structure (SMILES): O=C(Nc1ccn(CCCO)n1)[C@H](CC1CCCC1)c1cccc(C(F)(F)F)c1 [Example 85, 3-Cyclopentyl-N-[1-(3-hydroxy-propyl)-1H-pyrazol-3-yl]-2(R)-(3-trifluoromethyl-phenyl)-propionamide]
- change in vivo at 25 mg/kg [2]: -20.5%
